Results published in patent US8367716B2 (priority 2003, dated 2013).

Legend:
[1] = system: S. aureus DK825; test: Effect on growth rate and cell count of S. aureus; format: cell-based, Staphylococcus aureus
Experimental: Effect on growth rate of S. aureus. S. aureus DK825 was subcultured from glycerol stocks onto a blood agar plate and incubated at 37° C. for 18 h. A single colony was then inoculated into 5 ml TSB broth (supplemented with 0.25% glucose) and incubated at 37° C. for 24 h with shaking at 250 rpm. From a 10^−3 dilution of the overnight culture a 100 μl aliquot was inoculated into tubes containing 5 ml TSB broth resulting in an initial cell count of […] (confirmed by plating). For “treated” samples, an appropriate aliquot of c-di-GMP was added to give 200 μM c-di-GMP (final concentration). As a negative “untreated” control, tubes containing TSB and a similar volume of 0.9% NaCl were included in the studies. At time zero, 50 μl from each sample was plated on blood agar plates to determine the initial cfu/ml. […]

[2] = system: CD-1 mice; test: Lethality in mice after oral c-di-GMP; format: in vivo; conditions: 50 μL of 200 μM, orally, examined 24 h after treatment
Experimental: (§1) Safety and toxicity assays. For HeLa cell toxicity studies, various concentrations (0-, 25-, 50-, 100-, 200- and 400 μM) of c-di-GMP were tested in separate wells of chamber slides containing HeLa cells prepared as described above in complete media (in the absence of bacteria). HeLa cell morphology was examined microscopically after 12-, 24- and 48 h incubation. The potential lethality of c-di-GMP administered to mice was also examined. In these studies, adult female CD-1 mice and 5 day old infant mice were inoculated orally with 50 μL of 200 μM c-di-GMP and examined 24 h after c-di-GMP treatment.

[3] = system: S. aureus DK825; test: Coagulase production (bound or free); format: cell-based, Staphylococcus aureus
[4] = format: physicochemical
Experimental: c-di-GMP, CGMP and 5′-GMP nucleotides used. c-di-GMP used in the studies in this example was biochemically synthesized in pure form using a recently described novel synthesis method that produces a pure and high yielding preparation of c-di-GMP diammonium salt (FIG. 5A) (Hayakawa et al., 2003). Before use, the purity and stability of lyophilized c-di-GMP was determined by first resuspending the molecule in 0.9% NaCl creating a 2 mM solution then confirmed by HPLC analysis and ESI-TOF MS spectrometry. The cGMP (guanosine 3′, 5′-cyclic monophosphate, Sigma #G7504) and 5′-GMP (guanosine 5′-monophosphate, TCI, Tokyo Kasei Kogyo Co.) nucleotides were also used. Unless otherwise stated, a 4 mM stock solution of each nucleotide in 0.9% NaCl was prepared and stored at 4° C. until needed.
c-di-GMP stability tests. Although the term c-di-GMP is used here, c-di-GMP diammonium salt (and not the free diphosphoric acid) was used for these stability tests. (i) In boiling water: A 2 mM solution of c-di-GMP in water was prepared by dissolving 2.42 mg (3.3 μmol) of c-di-GMP in 1.65 mL of ion-exchanged/ion-free water (prepared by passing distilled water through ion-exchange resins). This solution was heated at 100° C. for 10 min and then concentrated under reduced pressure. The resulting residual was subjected to the HPLC analysis under conditions shown below. (ii) In pH 3 solution: From the 2 mM c-di-GMP aqueous solution described above, 500 μl (containing […] of c-di-GMP) was dissolved in 20 mL of 1 mM HCl to produce a solution with pH 3 (confirmed by pH meter). The resulting solution was stirred at room temperature for 1 h and then neutralized by the addition of 200 mL of a 0.1 mM NaOH. Water was evaporated under reduced pressure and the resulting residue was subjected to HPLC analysis. (iii) In pH 10 solution: From the 2 mM c-di-GMP aqueous solution described above, 500 μl (containing […] of c-di-GMP) was dissolved in 200 mL of a 0.1 mM NaOH aqueous solution to produce a solution with pH 10 (confirmed by pH meter). The resulting solution was stirred at room temperature for 1 h. The reaction was quenched by addition of 20 mL of a 1 mM HCl. Concentration of the resulting neutral solution under reduced pressure gave a residual material that was subjected to the HPLC analysis. The HPLC analysis was performed on a Waters 2695 Separation Module with a Waters 2996 Photodiode Array Detector under the following conditions. Column: Nacalai Tesque COSMOSIL 5C18-AR-II column (4.6 mm (diameter)×250 mm (length)); detection: 254 nm of UV ray; temperature: 40° C.; eluent: A=0.9% NaCl (aq), B=a 20:80 mixture of water:acetonitrile; flow rate:1 mL/min; 0-10 min: A 100%; 10-60 min: linear gradient from A100%/B 0% to A 40% to B 60%.

[5] = system: S. aureus; test: Tube agglutination assay and light microscopy (cell-to-cell aggregation); format: cell-based, Staphylococcus aureus
Experimental: Tube agglutination assay and light microscopy. Colonies from a 18 h blood agar plate were inoculated into 1 ml PBS to make a 0.5 McFarland standard containing ˜5×10^8 cfu/ml (confirmed by plate count). A 5 μl aliquot from the 0.5 McFarland standard was then inoculated into 5 ml polystyrene tubes containing 1 ml TSB representing ˜10^5 cfu/ml (confirmed by plate count). These tubes were inoculated either with 50 μl c-di-GMP to give a 200 μM c-di-GMP final concentration representing a “treated” sample or inoculated with 50 μl 0.9% NaCl as a control and representing an “untreated” control. Cultures were incubated at 37° C. for 24 h statically. Following incubation, these cultures were examined macroscopically and microscopically (Zeiss Axioskop) for the presence or absence of visible cell-to-cell clumping.

[6] = system: HeLa cells; test: HeLa cell toxicity (cell morphology); format: cell-based, human
Experimental: as §1

[7] = system: V. cholerae N16961; test: Crystal violet quantitative biofilm assay in glass test tubes; format: cell-based, Vibrio cholerae

Nc1nc2c(ncn2C2OC3COP(=O)(O)OC4C(COP(=O)(O)OC3C2O)OC(n2cnc3c(=O)[nH]c(N)nc32)C4O)c(=O)[nH]1 (stereo not shown) [c-di-GMP, 3′,5′-cyclic diguanylic acid]
final cell count ([1]; 200 μM, 24 h static culture, no difference to untreated): 6×10^8 CFU/ml | effect on growth rate ([1]; 200 μM, hourly examination up to 8 h): no obvious effect | inhibition of cell viability ([1]; as recalled in Example 5 from Example 3): approximately 1 log | lethality [2]: no lethal effects were observed | coagulase production treated vs untreated [3]: no difference | solubility [4]: soluble | stability in 100 mM ammonium acetate buffer [4]: stable | stability in 100 mM phosphate buffer [4]: stable | stability in 0.9% NaCl solution (monomeric structure) [4]: very stable | stability in physiological saline [4]: stable | stability of 2 mM stock solution in water [4]: formation of an aggregated product | stability of neat (lyophilized) form on storage [4]: formed aggregate molecules | cell-to-cell interactions and clumping (Gram stain, light microscopy) ([5]; DK825, 200 μM): dramatically less cell-to-cell interactions and clumping | visible cell aggregation (macroscopic) ([5]; DK825, 200 μM, 24 h static): no obvious visible cell aggregation or pellet | visible cell aggregation (macroscopic) ([5]; bap mutant M556): inhibits cell aggregation | cell-to-cell interactions and clumping (Gram stain, light microscopy) ([5]; bovine mastitis strains V329, V299, V315): less intercellular interactions and clumping | concentrations relatively noncytotoxic to HeLa cells [6]: < 400 µM | effect on HeLa cell morphology ([6]; 0-, 25-, 50-, 100-, 200- and 400 μM, 12-, 24- and 48 h): no obvious visible effect | changes in HeLa cell morphology ([6]; 400 μM, 48 h exposure): morphological changes | changes in HeLa cell morphology ([6]; up to 400 μM, 24 h exposure): did not cause any obvious changes in cell morphology | effect on biofilm formation ([7]; N16961 wildtype, 24 h static, LB, dose-dependent): increase biofilm formation | effect on biofilm formation ([7]; RocS mutant): increased biofilm forming activity
